The record followed here is publication PMC8654043 (Chemical Science, 2021).

In one experiment the target is caspase-8 (Homo sapiens, UniProt Q14790). Format: biochemical.
A further experiment has as its target T1, caspase-9 (Homo sapiens, UniProt P55211).
T1 sequence (P55211 1-416): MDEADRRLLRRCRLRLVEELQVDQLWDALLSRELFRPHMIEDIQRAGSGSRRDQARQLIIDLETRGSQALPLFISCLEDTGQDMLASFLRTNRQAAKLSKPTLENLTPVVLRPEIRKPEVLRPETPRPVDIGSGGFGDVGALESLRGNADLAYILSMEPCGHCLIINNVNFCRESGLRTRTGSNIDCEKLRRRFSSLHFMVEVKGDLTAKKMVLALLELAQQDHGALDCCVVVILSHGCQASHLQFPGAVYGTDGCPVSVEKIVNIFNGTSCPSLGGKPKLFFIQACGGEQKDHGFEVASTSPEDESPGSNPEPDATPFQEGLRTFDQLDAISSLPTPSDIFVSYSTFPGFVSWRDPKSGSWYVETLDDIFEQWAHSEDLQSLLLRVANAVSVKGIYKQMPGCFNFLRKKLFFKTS
The experiment is classed as biochemical.

Each structure is given as a SMILES string.

caspase-8, sequence (Q14790 217-374): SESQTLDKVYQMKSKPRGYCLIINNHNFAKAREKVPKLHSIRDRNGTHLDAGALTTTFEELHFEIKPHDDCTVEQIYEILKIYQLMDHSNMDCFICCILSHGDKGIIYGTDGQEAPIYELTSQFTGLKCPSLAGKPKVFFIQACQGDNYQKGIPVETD
caspase-8, sequence (Q14790 385-479): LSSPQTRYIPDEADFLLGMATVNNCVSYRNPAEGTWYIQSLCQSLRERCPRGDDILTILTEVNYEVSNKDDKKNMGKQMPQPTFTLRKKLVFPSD

One may read the IC50 as the point on the concentration scale where inhibition reaches its midpoint. Lower therefore signals greater potency. As for `CC(C)[C@H](NC(=O)c1ccc2ccccc2n1)C(=O)N[C@@H](CC(=O)O)C(=O)COc1c(F)cccc1F` [Q-VD-OPh], the half-inhibitory concentration (IC50) against caspase-8 was 280 nM; on caspase-9, 310 nM.
